# Data: PubChem BioAssay (NCI)
#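 Growth conditions: 96-well plates. Treatment: test compound, 48 hours, 5 concentrations. Analysis: linear interpolation between bracketing concentrations; unreached endpoints set to highest concentration. At the GI50, growth is halved. TGI: concentration producing complete growth inhibition.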
# Tests used:
# Experiment in all cases: DTP human tumour cell line panel, 48 h
# MDA-MB-435 = tested on: MDA-MB-435
# SK-MEL-5 melanoma = tested on: SK-MEL-5 melanoma
# SW-620 colon = tested on: SW-620 colon
# KM12 colon = tested on: KM12 colon
# T-47D breast = tested on: T-47D breast
# NCI-H226 lung = tested on: NCI-H226 lung
# LOX IMVI melanoma = tested on: LOX IMVI melanoma
# HOP-92 NSCLC = tested on: HOP-92 NSCLC
# OVCAR-8 ovarian = tested on: OVCAR-8 ovarian
# SNB-19 CNS = tested on: SNB-19 CNS
# MOLT-4 leukemia = tested on: MOLT-4 leukemia
# CCRF-CEM leukemia = tested on: CCRF-CEM leukemia
# SF-539 CNS = tested on: SF-539 CNS
# HOP-62 NSCLC = tested on: HOP-62 NSCLC
# NCI-H460 lung = tested on: NCI-H460 lung
# SK-MEL-28 melanoma = tested on: SK-MEL-28 melanoma
# OVCAR-5 ovarian = tested on: OVCAR-5 ovarian
# DU-145 prostate = tested on: DU-145 prostate
# MALME-3M melanoma = tested on: MALME-3M melanoma
# RPMI-8226 leukemia = tested on: RPMI-8226 leukemia
# SK-MEL-2 melanoma = tested on: SK-MEL-2 melanoma
# MCF7 breast = tested on: MCF7 breast
# SK-OV-3 ovarian = tested on: SK-OV-3 ovarian
# U251 CNS = tested on: U251 CNS
# NCI/ADR-RES ovarian = tested on: NCI/ADR-RES ovarian
# UACC-257 melanoma = tested on: UACC-257 melanoma
# SN12C renal = tested on: SN12C renal
# UO-31 renal = tested on: UO-31 renal
# NCI-H23 lung = tested on: NCI-H23 lung
# SNB-75 CNS = tested on: SNB-75 CNS
smiles,measurement,setting,value
CCCn1c(=O)c2[nH]c(-c3ccc(OCc4nc5ccc(F)cc5[nH]4)cc3)nc2n(CCC)c1=O,GI50,MDA-MB-435,25.1 µM
same,TGI,MDA-MB-435,> 100 µM
same,GI50,SK-MEL-5 melanoma,8.5 µM
same,TGI,SK-MEL-5 melanoma,33.3 µM
same,GI50,SW-620 colon,37.2 µM
same,TGI,SW-620 colon,> 100 µM
same,GI50,KM12 colon,78.9 µM
same,TGI,KM12 colon,> 100 µM
same,GI50,T-47D breast,4.4 µM
same,TGI,T-47D breast,50.4 µM
same,GI50,NCI-H226 lung,11.2 µM
same,TGI,NCI-H226 lung,36.9 µM
same,GI50,LOX IMVI melanoma,15.9 µM
same,TGI,LOX IMVI melanoma,46.9 µM
same,GI50,HOP-92 NSCLC,4.78 µM
same,TGI,HOP-92 NSCLC,36.8 µM
same,GI50,OVCAR-8 ovarian,6.34 µM
same,TGI,OVCAR-8 ovarian,34 µM
same,GI50,SNB-19 CNS,> 100 µM
same,TGI,SNB-19 CNS,> 100 µM
same,GI50,MOLT-4 leukemia,6.44 µM
same,TGI,MOLT-4 leukemia,> 100 µM
same,GI50,CCRF-CEM leukemia,8.91 µM
same,TGI,CCRF-CEM leukemia,> 100 µM
same,GI50,SF-539 CNS,12.2 µM
same,TGI,SF-539 CNS,27.7 µM
same,GI50,HOP-62 NSCLC,9.88 µM
same,TGI,HOP-62 NSCLC,> 100 µM
same,GI50,NCI-H460 lung,11.1 µM
same,TGI,NCI-H460 lung,32.3 µM
same,GI50,SK-MEL-28 melanoma,28.1 µM
same,TGI,SK-MEL-28 melanoma,> 100 µM
same,GI50,OVCAR-5 ovarian,> 100 µM
same,TGI,OVCAR-5 ovarian,> 100 µM
same,GI50,DU-145 prostate,41.5 µM
same,TGI,DU-145 prostate,> 100 µM
same,GI50,MALME-3M melanoma,12.6 µM
same,TGI,MALME-3M melanoma,38.7 µM
same,GI50,RPMI-8226 leukemia,5.14 µM
same,TGI,RPMI-8226 leukemia,> 100 µM
same,GI50,SK-MEL-2 melanoma,> 100 µM
same,TGI,SK-MEL-2 melanoma,> 100 µM
same,GI50,MCF7 breast,8.54 µM
same,TGI,MCF7 breast,93.2 µM
same,GI50,SK-OV-3 ovarian,21 µM
same,TGI,SK-OV-3 ovarian,> 100 µM
same,GI50,U251 CNS,17.3 µM
same,TGI,U251 CNS,> 100 µM
same,GI50,NCI/ADR-RES ovarian,30.4 µM
same,TGI,NCI/ADR-RES ovarian,> 100 µM
same,GI50,UACC-257 melanoma,30.4 µM
same,TGI,UACC-257 melanoma,> 100 µM
same,GI50,SN12C renal,16.5 µM
same,TGI,SN12C renal,> 100 µM
same,GI50,UO-31 renal,9.09 µM
same,TGI,UO-31 renal,29 µM
same,GI50,NCI-H23 lung,21 µM
same,TGI,NCI-H23 lung,> 100 µM
same,GI50,SNB-75 CNS,2.48 µM
